The source of these data is publication PMC6529438 (2019).

Assay in all cases: graphene oxide FRET fluorescence recovery with DNase I amplification
What all share (conditions): 5 mM Mg2+, 15 mM Na+, 20 mM Tris-HCl, 0.001% PEG 900, pH 8.0

Assay [1] has as its system Cy5-modified ampicillin aptamer (P3) (DNA, aptamer) GCGGGCGGTTGTATAGCGG
Assay [2] deals with Cy3-modified sulfadimethoxine aptamer (P1) (DNA, aptamer) GAGGGCAACGAGTGTTTATAGA
Assay [3] concerns FAM-modified kanamycin aptamer (P2) (DNA, aptamer) TGGGGGTTGAGGCTAAGCCGA
Setting [4] is: 500 ng/mL, mixed aptamers, very weak signal change.
Setting [5] is: 10-500 ng/mL, room temperature, then 37 °C with DNase I.

Turning to `COc1cc(NS(=O)(=O)c2ccc(N)cc2)nc(OC)n1`, the values for the binding result in assay [1] (setting [4]), in assay [2] (setting [5]) and in assay [3] (setting [4]) were “no”, “yes” and “no”, respectively.
As for `NC[C@H]1O[C@H](O[C@H]2[C@H](O)[C@@H](O[C@H]3O[C@H](CO)[C@@H](O)[C@H](N)[C@H]3O)[C@H](N)C[C@@H]2N)[C@H](O)[C@@H](O)[C@@H]1O`, the binding result is “no” in assay [2] (500 ng/mL kanamycin with 500 ng/mL ampicillin, mixed aptamers) and “yes” in assay [3] (setting [5]).
As to `CC1(C)S[C@@H]2[C@H](NC(=O)[C@H](N)c3ccccc3)C(=O)N2[C@H]1C(=O)O`, the binding entry is “yes” in assay [1] (setting [5]); “no” in assay [2] (500 ng/mL, with kanamycin none, alone weak signal change); “weak” in assay [3] (500 ng/mL, mixed aptamers, weak signal change only).
